This note sets out measurements from patent publication US11492346B2, “Benzisoxazole sulfonamide derivatives” (Pfizer Inc., priority 2019, dated 2022).

Where two headings read alike, the source gives them in different places.

A word on the Ki: it is the dissociation constant of the complex between target and ligand, obtained from inhibition or displacement.

Common to all, as to type: biochemical
The target in one experiment is KAT6B (Homo sapiens (Human), UniProt Q8WYB5). The experiment in a line: KAT assay (SAMDI mass spectrometry), KAT6B.
For a further experiment, the target named is KAT8 (Homo sapiens (Human), UniProt Q9H7Z6). The experiment in a line: KAT assay (SAMDI mass spectrometry), KAT8.
A further experiment addresses KAT7 (Homo sapiens (Human), UniProt O95251). The experiment in a line: KAT assay (SAMDI mass spectrometry), KAT7.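 Note: Baculovirus-expressed enzyme acetylating a histone peptide at room temperature, percent conversion from product and substrate peak areas, Ki from a Morrison tight-binding competitive fit.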
The target in the next experiment is KAT6A (Homo sapiens (Human), UniProt Q92794). Kind of experiment: KAT assay (SAMDI mass spectrometry), KAT6A.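 Note: Baculovirus-expressed KAT6A acetylating histone H3 (1-21) peptide (2 µM), 30-60 min at room temperature, % product conversion fitted to Morrison equation for tight-binding competitive inhibitors.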
The target in another experiment is KAT5 (Homo sapiens (Human), UniProt Q92993). The experiment in a line: KAT assay (SAMDI mass spectrometry), KAT5.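 Note: Baculovirus-expressed KAT5 acetylating a histone H4 peptide at room temperature, read as percent conversion to product, Ki from a Morrison tight-binding competitive fit.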
[1] abbreviates: 25 μM AcCoA, read-out: KAT6b Ki at 25 μM AcCoA.
[2] abbreviates: KAT6a Ki at 1 μM AcCoA, 1 μM AcCoA.
The mark [3] stands for this setting: read-out: KAT8 Ki at 1 μM AcCoA.
Where [4] appears, read: read-out: KAT7 Ki at 1 μM AcCoA.
The mark [5] stands for this setting: read-out: KAT6a Ki at 1 μM AcCoA, 1 μM AcCoA.
The mark [6] stands for this setting: read-out: KAT6a Ki at 10 μM AcCoA, 10 μM AcCoA.
Where [7] appears, read: read-out: KAT5 Ki at 1 μM AcCoA.
[8] abbreviates: read-out: KAT6b Ki at 1 μM AcCoA, 1 μM AcCoA.

Sequence of KAT7 (O95251 whole entry): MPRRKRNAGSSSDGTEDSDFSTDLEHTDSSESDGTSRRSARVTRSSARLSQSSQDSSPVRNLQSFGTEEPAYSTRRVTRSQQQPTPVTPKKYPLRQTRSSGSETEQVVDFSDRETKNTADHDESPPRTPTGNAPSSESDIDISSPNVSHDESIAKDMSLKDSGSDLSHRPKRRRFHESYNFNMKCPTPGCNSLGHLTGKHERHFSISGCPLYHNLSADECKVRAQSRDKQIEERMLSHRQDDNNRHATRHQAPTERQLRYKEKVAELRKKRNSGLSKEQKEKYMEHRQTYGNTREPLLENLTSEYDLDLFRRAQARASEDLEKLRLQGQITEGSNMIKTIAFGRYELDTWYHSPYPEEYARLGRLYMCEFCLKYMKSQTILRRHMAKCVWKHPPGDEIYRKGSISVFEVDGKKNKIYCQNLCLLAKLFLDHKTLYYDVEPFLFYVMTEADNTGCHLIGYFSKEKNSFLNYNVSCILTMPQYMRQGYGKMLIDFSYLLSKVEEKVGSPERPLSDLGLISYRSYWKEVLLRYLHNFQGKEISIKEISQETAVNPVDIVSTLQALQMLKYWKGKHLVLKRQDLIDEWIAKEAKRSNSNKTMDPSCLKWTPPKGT
Sequence of KAT6A (Q92794 whole entry): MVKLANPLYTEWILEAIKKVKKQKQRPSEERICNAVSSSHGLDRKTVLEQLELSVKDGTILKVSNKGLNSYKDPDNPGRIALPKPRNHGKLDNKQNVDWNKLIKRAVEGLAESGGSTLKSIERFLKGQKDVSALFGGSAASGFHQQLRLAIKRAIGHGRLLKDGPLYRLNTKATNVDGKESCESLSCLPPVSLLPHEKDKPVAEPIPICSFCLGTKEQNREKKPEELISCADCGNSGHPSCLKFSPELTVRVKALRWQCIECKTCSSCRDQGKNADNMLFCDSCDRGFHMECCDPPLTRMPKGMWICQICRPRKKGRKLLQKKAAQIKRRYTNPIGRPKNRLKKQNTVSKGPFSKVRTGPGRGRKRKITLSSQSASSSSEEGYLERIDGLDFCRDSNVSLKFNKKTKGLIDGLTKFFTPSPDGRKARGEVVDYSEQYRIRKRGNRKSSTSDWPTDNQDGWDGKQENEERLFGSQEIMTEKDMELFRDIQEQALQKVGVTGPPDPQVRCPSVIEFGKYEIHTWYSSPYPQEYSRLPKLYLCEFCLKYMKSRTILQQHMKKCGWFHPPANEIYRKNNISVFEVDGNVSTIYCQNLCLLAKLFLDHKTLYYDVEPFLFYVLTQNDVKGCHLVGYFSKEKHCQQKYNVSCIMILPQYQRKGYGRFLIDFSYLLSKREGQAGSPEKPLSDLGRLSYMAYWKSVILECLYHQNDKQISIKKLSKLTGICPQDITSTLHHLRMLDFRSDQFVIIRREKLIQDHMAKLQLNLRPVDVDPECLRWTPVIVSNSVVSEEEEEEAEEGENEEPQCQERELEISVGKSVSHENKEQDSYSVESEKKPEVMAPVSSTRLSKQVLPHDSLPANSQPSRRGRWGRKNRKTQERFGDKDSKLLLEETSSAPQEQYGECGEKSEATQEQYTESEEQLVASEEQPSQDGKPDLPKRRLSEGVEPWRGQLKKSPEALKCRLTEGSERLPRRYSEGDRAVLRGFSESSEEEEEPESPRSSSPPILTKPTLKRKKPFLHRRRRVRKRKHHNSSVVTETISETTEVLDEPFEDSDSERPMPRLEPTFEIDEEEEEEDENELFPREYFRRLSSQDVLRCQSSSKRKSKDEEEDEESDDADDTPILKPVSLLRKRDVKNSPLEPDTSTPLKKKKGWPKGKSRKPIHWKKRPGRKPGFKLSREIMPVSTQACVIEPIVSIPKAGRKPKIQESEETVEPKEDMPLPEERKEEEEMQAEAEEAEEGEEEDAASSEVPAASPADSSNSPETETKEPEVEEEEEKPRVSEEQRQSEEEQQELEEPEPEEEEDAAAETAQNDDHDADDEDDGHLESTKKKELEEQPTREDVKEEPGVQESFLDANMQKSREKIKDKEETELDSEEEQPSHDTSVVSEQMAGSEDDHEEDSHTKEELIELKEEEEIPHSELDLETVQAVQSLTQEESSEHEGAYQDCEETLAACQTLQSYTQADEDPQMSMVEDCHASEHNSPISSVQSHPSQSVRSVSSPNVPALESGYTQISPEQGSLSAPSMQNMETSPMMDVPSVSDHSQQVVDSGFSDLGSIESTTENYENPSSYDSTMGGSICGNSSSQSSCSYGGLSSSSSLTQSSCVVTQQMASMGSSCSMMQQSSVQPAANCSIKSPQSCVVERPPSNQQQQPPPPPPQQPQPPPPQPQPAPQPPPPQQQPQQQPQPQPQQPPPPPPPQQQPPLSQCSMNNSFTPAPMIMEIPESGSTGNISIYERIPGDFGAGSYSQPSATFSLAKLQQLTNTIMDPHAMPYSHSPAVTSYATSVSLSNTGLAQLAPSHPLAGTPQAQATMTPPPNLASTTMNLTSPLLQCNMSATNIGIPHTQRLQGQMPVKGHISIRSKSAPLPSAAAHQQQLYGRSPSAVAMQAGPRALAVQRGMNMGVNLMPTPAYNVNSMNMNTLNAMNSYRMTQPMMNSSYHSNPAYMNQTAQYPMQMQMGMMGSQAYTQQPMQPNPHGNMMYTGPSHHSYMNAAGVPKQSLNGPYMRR
Sequence of KAT6B (Q8WYB5 whole entry): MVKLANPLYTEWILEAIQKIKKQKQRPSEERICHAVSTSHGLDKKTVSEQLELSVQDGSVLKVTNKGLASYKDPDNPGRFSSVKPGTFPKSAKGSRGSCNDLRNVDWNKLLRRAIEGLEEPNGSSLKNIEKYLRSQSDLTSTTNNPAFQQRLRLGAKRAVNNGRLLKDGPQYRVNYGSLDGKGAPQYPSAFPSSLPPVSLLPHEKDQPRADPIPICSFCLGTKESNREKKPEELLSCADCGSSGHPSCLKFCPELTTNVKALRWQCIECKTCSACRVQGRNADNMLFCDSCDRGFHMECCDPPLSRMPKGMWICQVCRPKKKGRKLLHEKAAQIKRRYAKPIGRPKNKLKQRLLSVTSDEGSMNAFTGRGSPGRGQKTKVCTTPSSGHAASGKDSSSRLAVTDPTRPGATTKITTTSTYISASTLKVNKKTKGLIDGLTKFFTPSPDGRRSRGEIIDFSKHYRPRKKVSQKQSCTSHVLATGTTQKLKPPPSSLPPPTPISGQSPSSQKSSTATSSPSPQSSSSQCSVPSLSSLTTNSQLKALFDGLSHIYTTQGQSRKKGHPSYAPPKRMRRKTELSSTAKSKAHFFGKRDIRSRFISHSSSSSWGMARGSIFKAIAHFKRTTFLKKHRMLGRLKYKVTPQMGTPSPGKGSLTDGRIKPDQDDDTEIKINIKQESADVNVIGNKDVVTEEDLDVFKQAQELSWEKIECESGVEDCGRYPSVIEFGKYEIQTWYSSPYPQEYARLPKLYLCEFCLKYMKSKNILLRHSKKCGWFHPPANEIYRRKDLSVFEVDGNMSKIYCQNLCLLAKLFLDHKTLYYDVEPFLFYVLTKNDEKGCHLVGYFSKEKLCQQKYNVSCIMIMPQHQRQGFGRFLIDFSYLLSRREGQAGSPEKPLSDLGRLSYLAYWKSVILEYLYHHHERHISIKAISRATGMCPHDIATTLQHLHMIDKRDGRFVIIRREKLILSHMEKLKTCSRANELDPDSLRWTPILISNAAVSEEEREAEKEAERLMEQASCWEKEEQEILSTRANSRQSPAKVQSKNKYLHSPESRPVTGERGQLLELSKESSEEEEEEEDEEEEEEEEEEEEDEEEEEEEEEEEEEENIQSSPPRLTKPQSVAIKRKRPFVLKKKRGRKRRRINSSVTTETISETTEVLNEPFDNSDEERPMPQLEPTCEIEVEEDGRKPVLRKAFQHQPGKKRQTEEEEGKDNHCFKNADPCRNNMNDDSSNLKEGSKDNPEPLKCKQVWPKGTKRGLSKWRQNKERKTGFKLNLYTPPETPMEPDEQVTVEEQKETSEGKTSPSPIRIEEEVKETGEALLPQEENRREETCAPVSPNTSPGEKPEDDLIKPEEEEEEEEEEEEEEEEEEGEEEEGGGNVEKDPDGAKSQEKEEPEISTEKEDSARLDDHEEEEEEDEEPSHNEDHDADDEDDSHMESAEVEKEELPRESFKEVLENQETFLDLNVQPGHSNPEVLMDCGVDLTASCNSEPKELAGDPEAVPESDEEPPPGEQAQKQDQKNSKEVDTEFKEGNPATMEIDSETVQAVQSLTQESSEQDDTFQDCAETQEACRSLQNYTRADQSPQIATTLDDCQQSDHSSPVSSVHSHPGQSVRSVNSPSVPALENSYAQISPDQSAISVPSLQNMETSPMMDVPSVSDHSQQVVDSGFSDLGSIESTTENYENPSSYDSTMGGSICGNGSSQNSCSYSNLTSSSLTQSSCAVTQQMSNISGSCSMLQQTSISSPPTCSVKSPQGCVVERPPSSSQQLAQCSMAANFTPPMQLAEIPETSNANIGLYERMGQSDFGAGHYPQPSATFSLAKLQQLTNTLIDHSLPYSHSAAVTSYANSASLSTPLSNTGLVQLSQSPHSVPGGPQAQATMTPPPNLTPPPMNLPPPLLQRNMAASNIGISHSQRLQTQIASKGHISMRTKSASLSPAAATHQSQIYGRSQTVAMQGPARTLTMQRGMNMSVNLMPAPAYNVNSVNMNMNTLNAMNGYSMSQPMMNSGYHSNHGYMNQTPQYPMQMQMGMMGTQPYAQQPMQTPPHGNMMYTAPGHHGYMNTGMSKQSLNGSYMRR
Sequence of KAT8 (Q9H7Z6 whole entry): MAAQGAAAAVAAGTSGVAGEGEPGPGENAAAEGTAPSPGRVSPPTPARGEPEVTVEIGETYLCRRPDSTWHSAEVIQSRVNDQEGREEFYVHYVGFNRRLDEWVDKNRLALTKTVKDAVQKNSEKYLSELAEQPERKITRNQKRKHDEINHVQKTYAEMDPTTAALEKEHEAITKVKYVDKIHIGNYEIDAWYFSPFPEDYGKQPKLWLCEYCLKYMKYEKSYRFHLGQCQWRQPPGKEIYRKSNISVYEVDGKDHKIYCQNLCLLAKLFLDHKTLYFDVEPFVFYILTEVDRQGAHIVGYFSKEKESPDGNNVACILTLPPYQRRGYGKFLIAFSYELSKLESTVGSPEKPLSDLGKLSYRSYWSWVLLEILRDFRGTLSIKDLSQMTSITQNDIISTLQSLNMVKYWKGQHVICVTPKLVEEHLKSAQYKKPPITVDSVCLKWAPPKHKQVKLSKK
Description for KAT5: (§1) Prepare 10 mM stock solutions in 100% DMSO from solid material • 2. Serial dilute 10 mM, 1 mM or 0.1 mM compound stocks 3-fold in 100% DMSO for 11-point dose response
(§2) Prepare 1× assay buffer containing 10 mM Tris HCL pH 8.0, 2.5 mM NaCl, 0.5 mM EDTA, 0.005% BSG and 0.02% Tween-20 • 2. Dilute Histone peptide (CPC Scientific) and AcCoA (Sigma) together in assay buffer to 2×. • 3. Dilute KAT enzyme in assay buffer to 2×.
(§3) Enzyme reaction • 1. Final reaction conditions for each KAT assay in a 20 ul assay reaction volume: • i. KAT5 25 nM, 1 uM AcCoA, 2 uM H4 1-21 peptide, 30-minute reaction • ii. KAT6A 15 nM, 1 uM AcCoA, 2 uM H3 1-21 peptide, 45-minute reaction • iii. KAT6B 25 nM, 1 uM AcCoA, 2 uM H3 1-21 peptide, 60-minute reaction • iv. KAT7 12.5 nM, 1 uM AcCoA, 2 uM H3 1-21 peptide, 45-minute reaction • v. KAT8 15 nM, 1 uM AcCoA, 2 uM H3 1-21 peptide, 45-minute reaction • 2. Add 0.5 ul of diluted compound to the assay plate (384-well V-bottom polypropylene plates) or 0.5 ul of DMSO for control wells. • 3. Add 10 ul of 2× Histone peptide/2×AcCoA mix to the assay plate. • 4. Add 10 ul of 2× enzyme to the assay plate. • 5. Stop the reaction after the indicated time with the addition of 2 ul of 5% formic acid • 6. Each reaction was analyzed using self-assembled monolayer desorption/ionization time-of-flight mass spectrometry (Mrksich, Milan (2008) Mass Spectrometry of Self-Assembled Monolayers: A New Tool for Molecular Surface Science ACS Nano 2008 2 (1), 7-18; SAMDI Tech, Inc. (Chicago, Ill.)). • 7. Area under the curve (AUC) for both substrate and product peaks was determined for KAT5 at M.W. 2561 [Substrate+H]^+ and 2603 [Product+H]^+ with a +/−1 Da tolerance, respectively • 8. Area under the curve (AUC) for both substrate and product peaks was determined for KAT6a, KAT6B, KAT7 and KAT8 at M.W. 2723 [Substrate+H]^+ and 2765 [Product+H]^+ with a +/−1 Da tolerance, respectively. […] Percent conversion to product was calculated by: AUCProduct/(AUCsubstrate+AUCProduct).
(§4) IC50 values were determined by fitting the % conversion at each inhibitor concentration to the 4-parameter IC50 equation using Pfizer proprietary curve fitting software. • 2. Ki values were determined by fitting the % conversion at each inhibitor concentration to the Morrison equation for tightbinding competitive inhibitors using Pfizer proprietary curve fitting software.
(§5) KAT enzymes were expressed using a baculovirus expression system and purified at Pfizer, La Jolla. […] Acetyl coenzyme A was purchased from Sigma-Aldrich (St. Louis, Mo.). All other biochemical reagents were purchased from Sigma-Aldrich or ThermoFisher Scientific (Waltham, Mass.).
(§6) KAT assays were performed at room temperature in assay buffer containing 1 μM AcCoA, 2 μM histone peptide, 10 mM Tris HCL pH 8.0, 2.5 mM NaCl, 0.5 mM EDTA, 0.005% BSG and 0.02% Tween-20. 10 ul of 2× Histone peptide/AcCoA mix was added to a 384-well V-bottom polypropylene assay plate containing 0.5 ul of serially diluted test compound in 100% dimethyl sulfoxide (DMSO). To start the reaction, 10 ul of 2× enzyme solution was added to the assay plate. KAT assays were terminated after 30-60 minutes with the addition of 2 ul of 5% formic acid. All assays used histone H3 (1-21) peptide except for the KAT5 assay which used histone H4 (1-21) peptide. The final enzyme concentration for each KAT was as follows: KAT5, 25 nM; KAT6A, 15 nM; KAT6B, 25 nM; KAT7, 12.5 nM; KAT8 15 nM. Each reaction was analyzed using self-assembled monolayer desorption/ionization time-of-flight mass spectrometry (Mrksich, Milan (2008) Mass Spectrometry of Self-Assembled Monolayers: A New Tool for Molecular Surface Science ACS Nano 2008 2 (1), 7-18; SAMDI Tech, Inc. (Chicago, Ill.)).
(§7) Area under the curve (AUC) for both substrate and product peaks was determined for KAT5 at M.W. 2561 [Substrate+H]^+ and 2603 [Product+H]^+ with a +/−1 Da tolerance, respectively.
Description for KAT6B: as §1, §2, §3, §4, §5, §6, §7
Description for KAT7: as §1, §2, §3, §4, §5, §6, §7
Description for KAT8: as §1, §2, §3, §4, §5, §6, §7

For `COc1ccccc1S(=O)(=O)Nc1noc2cc(Cn3cccn3)cc(OC)c12` [Example 45, 2-methoxy-N-{4-methoxy-6-[(1H-pyrazol-1-yl)methyl]-1,2-benzoxazol-3-yl}benzene-1-sulfonamide], the Ki stood at 1.55 nM at KAT6B (setting [1]); 2.11 nM on KAT6B (KAT6b Ki at 1 μM AcCoA, 1 μM AcCoA); 900 nM on KAT8 (1 μM AcCoA); 90 nM on KAT7 (KAT7 Ki at 1 μM AcCoA); 2.28 nM at KAT6A (setting [2]); 320 nM at KAT5 (1 μM AcCoA).

As for `COc1cc(Cn2cccn2)cc2onc(NS(=O)(=O)c3cccc4c(C)ccnc34)c12` [Example 61], the Ki at KAT6B (setting [1]) worked out at 1.56 nM; on KAT8 (setting [3]), 540 nM; at KAT7 (setting [4]) it was 40 nM; at KAT6A (setting [5]), 0.95 nM; on KAT6A (setting [6]), 0.92 nM; on KAT5 (setting [7]) it was 200 nM.

Turning to `COc1ccc(C)cc1S(=O)(=O)Nc1noc2cc(Cn3cccn3)cc(OC)c12` [Example 17], the Ki at KAT6B (setting [1]) was found to be 1.21 nM; on KAT8 (setting [3]), 220 nM; on KAT7 (setting [4]), 90 nM; on KAT6A (setting [5]), 0.7 nM; at KAT6A (setting [6]), 0.51 nM; at KAT5 (setting [7]), 150 nM.

As to `COc1cccc(OC)c1S(=O)(=O)Nc1noc2cc(Cn3nccc3C)cc(OC)c12` [Example 3, 2,6-dimethoxy-N-{4-methoxy-6-[(5-methyl-1H-pyrazol-1-yl)methyl]-1,2-benzoxazol-3-yl}benzene-1-sulfonamide], the Ki on KAT6B (setting [8]) was determined as 8.63 nM; at KAT8 (setting [3]), 17400 nM; on KAT7 (setting [4]), 1720 nM; on KAT6A (setting [5]) it was 3.79 nM; at KAT6A (setting [6]), 1.54 nM; at KAT5 (setting [7]) it was 9790 nM.

Take `COc1cccc(OC)c1S(=O)(=O)Nc1noc2cc(Cn3cccn3)cc(C3CC3)c12` [Example 96]: the Ki on KAT6B (setting [1]) was 3.67 nM; on KAT8 (setting [3]), 12500 nM; on KAT7 (setting [4]), 900 nM; at KAT6A (setting [5]), 1.58 nM; on KAT5 (setting [7]), 11700 nM.

Take `COc1cccc(OC)c1S(=O)(=O)Nc1noc2cc(Cn3cccn3)c(Br)cc12` [Example 92, N-{5-bromo-6-[(1H-pyrazol-1-yl)methyl]-1,2-benzoxazol-3-yl}-2,6-dimethoxybenzene-1-sulfonamide]: the Ki at KAT6B (setting [1]) turned out to be 2.73 nM; at KAT8 (setting [3]), 240 nM; at KAT7 (setting [4]) it was 30 nM; at KAT6A (setting [5]), 1.07 nM; on KAT6A (setting [6]) it was 0.45 nM; at KAT5 (setting [7]), 110 nM.

In the case of `CCc1cc(Cn2cccn2)cc2onc(NS(=O)(=O)c3c(OC)cccc3OC)c12` [Example 95, N-{4-ethyl-6-[(1H-pyrazol-1-yl)methyl]-1,2-benzoxazol-3-yl}-2,6-dimethoxybenzene-1-sulfonamide], the Ki was 8.35 nM on KAT6B (setting [1]); 3260 nM on KAT8 (setting [3]); 4340 nM at KAT7 (setting [4]); 9.88 nM at KAT6A (setting [5]); 12500 nM at KAT5 (setting [7]).

Consider `COc1cccc(OC)c1S(=O)(=O)Nc1noc2cc(Cn3cccn3)c(C3CC3)cc12` [Example 31], for which the figures for the Ki on KAT6B (setting [1]), on KAT7 (setting [4]) and on KAT6A (setting [5]) were 0.89 nM, 56 nM and 0.32 nM, respectively.

As for `COc1cc2c(NS(=O)(=O)c3c(OC)cccc3OC)noc2cc1Cn1cccn1` [Example 39], the results for the Ki on KAT6B (setting [1]), at KAT7 (setting [4]) and on KAT6A (setting [5]) were 0.26 nM, 8 nM and 0.74 nM, respectively.

For `COCc1ccc(OC)c(S(=O)(=O)Nc2noc3cc(Cn4cccn4)c(F)cc23)c1` [Example 44], the Ki on KAT6B (setting [1]) was 43 nM; at KAT7 (setting [4]), 630 nM; at KAT6A (setting [5]), 12 nM.

For `COc1cccc(OC)c1S(=O)(=O)Nc1noc2cc(Cc3ccccn3)cc(OC)c12` [Example 107, 2,6-dimethoxy-N-[4-methoxy-6-(pyridin-2-ylmethyl)-1,2-benzoxazol-3-yl]benzenesulfonamide], the Ki on KAT6B (setting [1]) turned out to be 2.9 nM; at KAT7 (setting [4]), 370 nM; at KAT6A (setting [5]), 1.7 nM; at KAT6A (setting [6]), 2.6 nM.

`COc1cc2c(cc1S(=O)(=O)Nc1noc3cc(Cn4cccn4)cc(OC)c13)CCCC2` [Example 20]: the Ki on KAT6B (setting [1]) was 4.08 nM; at KAT6B (setting [8]), 1.78 nM; on KAT8 (setting [3]), 470 nM; at KAT6A (setting [5]), 0.34 nM; at KAT6A (setting [6]), 0.87 nM; on KAT5 (setting [7]), 150 nM.

As to `COc1cccc(OC)c1S(=O)(=O)Nc1noc2cc(Cn3cccn3)c(F)c(OC)c12` [Example 128, N-{5-fluoro-4-methoxy-6-[(1H-pyrazol-1-yl)methyl]-1,2-benzoxazol-3-yl}-2,6-dimethoxybenzene-1-sulfonamide], the Ki on KAT6B (setting [1]) came to 1.2 nM; on KAT7 (setting [4]) it was 49 nM; at KAT6A (setting [5]), 0.54 nM; at KAT6A (setting [6]) it was 0.59 nM.

With `COc1cccc(OC)c1S(=O)(=O)Nc1noc2cc(Cc3ncco3)cc(OC)c12` [Example 110, 2,6-dimethoxy-N-[4-methoxy-6-(1,3-oxazol-2-ylmethyl)-1,2-benzoxazol-3-yl]benzenesulfonamide], the Ki at KAT6B (setting [1]) was determined as 8.8 nM; at KAT7 (KAT7 Ki at 1 μM AcCoA) it was 230 nM; on KAT6A (setting [2]), 2.5 nM; at KAT6A (KAT6a Ki at 10 μM AcCoA, 10 μM AcCoA) it was 2.1 nM.

With `CCc1ccc(OC)c(S(=O)(=O)Nc2noc3cc(Cn4cccn4)c(F)cc23)c1` [Example 32], the values for the Ki at KAT6B (setting [1]), on KAT7 (setting [4]) and at KAT6A (setting [5]) were 2.1 nM, 60 nM and 1.4 nM, respectively.

In the case of `COc1cc2c(cc1S(=O)(=O)Nc1noc3cc(Cn4cccn4)cc(OC)c13)CCCO2` [Example 42], the Ki at KAT6B (setting [1]) was determined as 0.48 nM; at KAT7 (setting [4]), 160 nM; on KAT6A (setting [5]), 0.72 nM.

For `COc1cccc(OC)c1S(=O)(=O)Nc1noc2cc(Cc3ncccn3)cc(OC)c12` [Example 116], the Ki at KAT6B (setting [1]) is 25 nM; at KAT7 (setting [4]), 95 nM; at KAT6A (setting [5]) it was 3 nM.

On to `COc1cccc(OC)c1S(=O)(=O)Nc1noc2cc(Cc3ccon3)cc(OC)c12` [Example 114], for which the Ki came out at 2 nM at KAT6B (setting [1]), 220 nM at KAT7 (setting [4]) and 1.9 nM at KAT6A (setting [5]).

On to `COc1cc(Cn2cccn2)cc2onc(NS(=O)(=O)c3cc(C)cc(C)c3)c12` [Example 48], for which the Ki at KAT7 (setting [4]) stood at 410 nM; on KAT6A (setting [5]), 14.9 nM; at KAT6A (setting [6]) it was 6.51 nM.

In the case of `COc1cccc(OC)c1S(=O)(=O)Nc1noc2cc(C(O)c3cocn3)cc(OC)c12` (single isomer, unassigned) [Example 126], the results for the Ki at KAT7 (KAT7 Ki at 1 μM AcCoA) and at KAT6A (setting [2]) were 4150 nM and 230 nM, respectively.

As for `COc1cc(Cn2cccn2)cc2onc(NS(=O)(=O)c3cccc(F)c3Cl)c12` [Example 63], the Ki turned out to be 940 nM at KAT7 (setting [4]), 15.8 nM on KAT6A (setting [5]) and 10.9 nM at KAT6A (setting [6]).

With `COc1cc(S(=O)(=O)Nc2noc3cc(Cn4cccn4)cc(OC)c23)ccc1F` [Example 82], the Ki on KAT7 (setting [4]) was 640 nM; at KAT6A (setting [5]), 16.9 nM; at KAT6A (setting [6]), 12.2 nM.

Regarding `COc1ccc(O)c(S(=O)(=O)Nc2noc3cc(Cn4cccn4)cc(OC)c23)c1` [Example 83], the Ki on KAT7 (setting [4]) is 780 nM; on KAT6A (setting [5]), 13.7 nM; at KAT6A (setting [6]) it was 7.76 nM.

Take `COc1ccccc1S(=O)(=O)Nc1noc2cc(Cn3nccn3)cc(OC)c12` [Example 133]: the Ki at KAT7 (setting [4]) worked out at 19.2 nM; at KAT6A (setting [5]) it was 2.9 nM.

With `COc1cccc(OC)c1S(=O)(=O)Nc1noc2cc(C(O)c3ccccn3)cc(OC)c12` (stereo not shown) [Example 106, N-{6-[hydroxy(pyridin-2-yl)methyl]-4-methoxy-1,2-benzoxazol-3-yl}-2,6-dimethoxybenzenesulfonamide], the Ki at KAT7 (setting [4]) came out at 1900 nM; at KAT6A (setting [5]) it was 35 nM.

Take `COc1cc(Cn2cccn2)cc2onc(NS(=O)(=O)c3cccc(C(F)(F)F)c3)c12` [Example 53]: the Ki at KAT7 (setting [4]) came out at 300 nM; on KAT6A (setting [5]) it was 16.1 nM; on KAT6A (setting [6]), 8.78 nM.

With `COC(=O)c1cccc(C)c1S(=O)(=O)Nc1noc2cc(Cn3cccn3)cc(OC)c12` [Example 55], the Ki at KAT7 (setting [4]) is 15000 nM; at KAT6A (setting [5]), 291 nM; on KAT6A (setting [6]), 178 nM.

As to `CCOc1cc2c(NS(=O)(=O)c3c(OC)cccc3OC)noc2cc1Cn1cccn1` [Example 40], the figures for the Ki at KAT7 (setting [4]) and on KAT6A (setting [5]) were 380 nM and 0.47 nM, respectively.

`COc1ccccc1S(=O)(=O)Nc1noc2cc(Cn3cccn3)ccc12` [Example 34]: the results for the Ki on KAT6B (setting [1]), at KAT7 (setting [4]) and on KAT6A (setting [5]) were 4.2 nM, 1200 nM and 30 nM, respectively.

As for `COc1cccc(OC)c1S(=O)(=O)Nc1noc2cc(Cn3cccn3)c(OC(F)F)cc12` [Example 41], the Ki amounted to 0.36 nM at KAT6B (setting [1]), 230 nM at KAT7 (setting [4]) and 0.36 nM on KAT6A (setting [5]).

For `COc1cc(OC)cc(S(=O)(=O)Nc2noc3cc(Cn4cccn4)cc(OC)c23)c1` [Example 80], the Ki at KAT7 (setting [4]) was determined as 360 nM; at KAT6A (setting [5]), 15.6 nM; at KAT6A (setting [6]), 5.32 nM.

As to `COCc1ccccc1S(=O)(=O)Nc1noc2cc(Cn3cccn3)cc(OC)c12` [Example 67], the results for the Ki at KAT7 (setting [4]), at KAT6A (setting [5]) and on KAT6A (setting [6]) were 1760 nM, 20 nM and 10.2 nM, respectively.

As for `COc1cccc(OC)c1S(=O)(=O)Nc1noc2cc(C(O)c3ncccn3)cc(OC)c12` (single isomer, unassigned) [Example 115], the Ki on KAT7 (KAT7 Ki at 1 μM AcCoA) is more than 15000 nM; at KAT6A (setting [2]), 1220 nM.

As to `COc1cccc(OC)c1S(=O)(=O)Nc1noc2cc(C(O)c3cc[nH]n3)cc(OC)c12` (single isomer, unassigned) [Example 118], the Ki on KAT7 (KAT7 Ki at 1 μM AcCoA) was 2300 nM; on KAT6A (setting [2]) it was 357 nM.
